Reference: patent publication US11999726B2, “5-methyl-4-fluoro-thiazol-2-yl compounds” (Eli Lilly and Company, priority 2018, dated 2024)

Biological target: T1, human O-GlcNAc-β-N-acetylglucosaminidase (OGA) (Homo sapiens, UniProt O60502)
T1 construct: poly-histidine (HIS) tag (N); made in house; host or cells: Sf9 insect cells (Bac-to-Bac baculovirus, pFastBac1)
T1 sequence (O60502 1-916): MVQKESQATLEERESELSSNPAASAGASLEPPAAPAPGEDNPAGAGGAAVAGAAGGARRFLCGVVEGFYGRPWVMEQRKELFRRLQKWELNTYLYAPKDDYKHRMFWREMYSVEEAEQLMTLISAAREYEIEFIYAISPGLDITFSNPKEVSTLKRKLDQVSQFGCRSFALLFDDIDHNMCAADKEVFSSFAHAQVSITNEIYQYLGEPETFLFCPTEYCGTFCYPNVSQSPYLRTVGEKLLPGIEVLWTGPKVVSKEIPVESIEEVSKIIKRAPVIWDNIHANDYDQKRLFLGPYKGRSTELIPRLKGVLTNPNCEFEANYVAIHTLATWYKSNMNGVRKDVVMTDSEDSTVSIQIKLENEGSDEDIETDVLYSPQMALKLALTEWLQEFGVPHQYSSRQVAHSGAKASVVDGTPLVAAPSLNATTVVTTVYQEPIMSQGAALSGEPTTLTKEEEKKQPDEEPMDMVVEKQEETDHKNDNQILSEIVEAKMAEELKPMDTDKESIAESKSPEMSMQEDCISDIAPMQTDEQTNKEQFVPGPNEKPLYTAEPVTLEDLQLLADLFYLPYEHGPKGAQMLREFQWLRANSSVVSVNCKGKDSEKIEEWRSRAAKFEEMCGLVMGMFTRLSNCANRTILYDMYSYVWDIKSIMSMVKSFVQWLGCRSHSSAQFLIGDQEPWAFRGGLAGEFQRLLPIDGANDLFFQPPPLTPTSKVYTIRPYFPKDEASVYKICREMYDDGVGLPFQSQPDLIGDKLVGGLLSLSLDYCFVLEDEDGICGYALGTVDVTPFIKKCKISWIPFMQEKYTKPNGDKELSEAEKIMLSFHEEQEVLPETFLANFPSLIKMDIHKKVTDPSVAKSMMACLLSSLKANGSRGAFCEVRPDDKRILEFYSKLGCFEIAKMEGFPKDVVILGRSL
Assay: In Vitro Human OGA Enzyme Assay
Assay type: biochemical
Conditions: FD-GlcNAc substrate 6.7 μM; 30 min pre-incubation with OGA enzyme; 60 min at room temperature; pH 7; n=3
Procedure: In Vitro Human OGA Enzyme Assay
The nucleotide sequence encoding full-length human O-GlcNAc-β-N-acetylglucosaminidase (NM_012215) is inserted into pFastBac1 (Invitrogen) vector with an N-terminal poly-histidine (HIS) tag. Baculovirus generation is carried out according to the Bac-to-Bac Baculovirus Expression system (Invitrogen) protocol. Sf9 cells are infected at 1.5×10^6 cells/mL using 10 mL of P1 virus per Liter of culture and incubated at 28° C. for 48 hrs. Cells are spun down, rinsed with PBS and the pellets stored at −80° C. […]
Resin is then packed onto column and washed with 50 mM Tris, pH 8.0, 300 mM NaCl, 10% glycerol, 10 mM imidazole, 0.1% Triton™ X-100, 1 mM DTT, followed by 50 mM Tris, pH 8.0, 150 mM NaCl, 10 mM imidazole, 10% glycerol, 1 mM DTT. […] Fractions containing His-OGA are pooled and protein concentration measured with BCA ([…]).
The OGA enzyme catalyses the removal of O-GlcNAc from nucleocytoplasmic proteins. […] This fluorogenic substrate becomes fluorescent upon cleavage by OGA, so that the enzyme activity can be measured by the increase in fluorescence detected at 535 nm (excitation at 485 nm).
The assay buffer is prepared to give a final concentration of 50 mM […], 0.01% bovine serum albumin and 0.01% Triton™ X-100 in water, at pH 7. […] Then, without stopping the reaction, fluorescence is read. […]

IC50: 0.343 nM
SMILES: CC(=O)Nc1nc(F)c(CN2CC[C@H](Oc3cnc(C#N)cn3)C[C@@H]2C)s1 [Example 1, N-[5-[[(2S,4S)-4-(5-cyanopyrazin-2-yl)oxy-2-methyl-1-piperidyl]methyl]-4-fluoro-thiazol-2-yl]acetamide]
